Data published in patent EP0007206A1, “Phenethanolamines, their formulations, preparation and use” (ELI LILLY AND COMPANY, priority 1978, dated 1980).

Tested on: adenocarcinoma (CA 755 tumor)
Experiment: combination chemotherapy with vindesine, implanted adenocarcinoma (Table 5)
Format: in vivo, mice
Details: vindesine 0.6 mg./kg. i.p. days 1, 5, 9, 13, B 7.5 mg./kg. i.p. twice daily first 15 days
Description: In a typical experiment, laboratory mice were infected by a subcutaneous implantation of a tumor tissue in the axillary region of the body. The implantations were accomplished by means of a trocar. Initial tumor size in each animal generally was about 2 square millimeters. Tumor size was then measured periodically as length and width in mm. Typical tumor systems implanted included adenocarcinoma 755, an Aly Fast strain of bronchiogenic carcinoma, and mecca lymphosarcoma. Oncolytic agents utilized in the tests to determine the potentiating effects of the compounds of the invention.include cytoxan, 5-fluorouracil, vindesine, methotrexate and 6-mercaptopurine. Twenty or thirty infected animals generally were selected as controls and received placebo. Ten infected animals normally were selected to receive a known oncolytic agent. Another ten infected animals were administered the known oncolytic agent in addition to a compound of this invention.
The animals receiving combination chemotherapy were administered vindesine intraperitoneally according to the above-indicated dosage regimen, and N-(2-phenyl-2-hydroxyethyl)-1,1-dimethyl-3-(4-aminocarbonylphenyl)propylaminium chloride was administered intraperitoneally at the rate of 7.5 mg./kg. twice daily for the first 15 days of the test. Under column I of each of the indicated days of measurement is given the average tumor size in square millimeters for each test group. Column II under each of the indicated days of measurement provides the number of tumor free animals out of those still living on that particular day in each test group. […] In contrast, all of the control animals and those receiving vindesine alone had died by day 40, and none were tumor free after the thirteenth day of the test.

Q: Which results are given for `CCC1(O)CC2CN(CCc3c([nH]c4ccccc34)C(C(=O)OC)(c3cc4c(cc3OC)N(C)C3C(O)(C(N)=O)C(O)C5(CC)C=CCN6CCC43C65)C2)C1` (stereo not shown) [VDS, vindesine]?
A: number of tumor free animals out of those still living (Day 0): 0/10; average tumor size (Day 8): 35 square millimeters; number of tumor free animals out of those still living (Day 8): 3/9; average tumor size (Day 13): 170 square millimeters; number of tumor free animals out of those still living (Day 13): 0/8; average tumor size (Day 19): 300 square millimeters; number of tumor free animals out of those still living (Day 19): 0/8; average tumor size (Day 26): 620 square millimeters; number of tumor free animals out of those still living (Day 26): 0/6; number of tumor free animals out of those still living (Day 40): 0/0
